This is an account of results in patent publication US12552790B2, “Positive modulators of the muscarinic acetylcholine receptor M4” (Vanderbilt University, priority 2023, dated 2026).

Molecules are shown by their SMILES.

For orientation: Emax means the size of the effect at its maximum, as opposed to the concentration needed. Broadly, the EC50 is the midpoint of the concentration-response curve.

This assay deals with T1, Human M4 (Homo sapiens, UniProt P08173).
T1 construct: expressed in transfected cells
T1 sequence (P08173 1-479): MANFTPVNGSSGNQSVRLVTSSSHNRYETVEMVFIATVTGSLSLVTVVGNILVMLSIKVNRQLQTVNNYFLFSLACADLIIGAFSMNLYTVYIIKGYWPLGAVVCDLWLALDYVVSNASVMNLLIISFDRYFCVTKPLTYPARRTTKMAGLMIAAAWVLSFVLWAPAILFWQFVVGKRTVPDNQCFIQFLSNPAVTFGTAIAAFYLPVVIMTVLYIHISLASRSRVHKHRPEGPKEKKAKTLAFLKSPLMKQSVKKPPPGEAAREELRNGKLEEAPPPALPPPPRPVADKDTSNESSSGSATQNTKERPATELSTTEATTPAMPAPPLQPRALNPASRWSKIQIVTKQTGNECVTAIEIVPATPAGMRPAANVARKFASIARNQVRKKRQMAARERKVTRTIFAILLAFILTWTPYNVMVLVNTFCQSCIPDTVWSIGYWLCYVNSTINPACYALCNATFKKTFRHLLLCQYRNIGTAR
Description: M4 cell-based functional assay, calcium mobilization, potentiation of ACh EC20. As to conditions: for Emax at 30 µM: % ACh maximum at 30 μM; for EC50: CHO-K1 hM4-Gqi5 cells, calcium flux, ACh EC20. The procedure, abridged:
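CHO-K1 cells stably co-expressing human M4 and chimeric Gqi5, loaded with Fluo-4-AM, read by calcium fluorescence (ex 480/em 530 nm). Compound (10-point 1:3 series) added ~140 s before an EC20 ACh challenge, then EC80 ACh. Response expressed as fold over basal, normalized to maximal ACh response.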
On the technique in general: A change in cytosolic calcium serves as a functional read-out for many receptors and channels.

As to `[2H]C1([2H])Oc2ccc(OC3CCN(c4nc5nn(C)c(=O)n5c(C)c4C)CC3)cc2OC1([2H])[2H]` [Compound A10, 7-(4-((2,3-dihydrobenzo[b][1,4]dioxin-6-yl-2,2,3,3-d4)oxy)piperidin-1-yl)-2,5,6-trimethyl-[1,2,4]triazolo[4,3-a]pyrimidin-3(2H)-one], the maximal effect (Emax) at 30 µM worked out at 96% and the 50% effective concentration (EC50) is 2 nM.

As to `[2H]C1([2H])Oc2ccc(OC3CCN(c4nc5c(cc4C)C(=O)NC5)CC3)cc2OC1([2H])[2H]` [Compound 3, 2-(4-((2,3-dihydrobenzo[b][1,4]dioxin-6-yl-2,2,3,3-d4)oxy)piperidin-1-yl)-3-methyl-6,7-dihydro-5H-pyrrolo[3,4-b]pyridin-5-one], the Emax at 30 µM stood at 96% and the EC50 stood at 2 nM.

Turning to `[2H]C1([2H])Oc2ccc(OC3CCN(c4nc5nn(C)c(=O)n5cc4C)CC3)cc2OC1([2H])[2H]` [Compound A6, 7-(4-((2,3-dihydrobenzo[b][1,4]dioxin-6-yl-2,2,3,3-d4)oxy)piperidin-1-yl)-2,6-dimethyl-[1,2,4]triazolo[4,3-a]pyrimidin-3(2H)-one], the Emax at 30 µM was found to be 90% and the EC50 came out at 7 nM.
